According to ChEMBL document CHEMBL1146905, “Synthesis and evaluation of phenoxy acetic acid derivatives as [corrected] anti-mycobacterial agents” (2006):
≈ marks a conversion by molar mass, not a printed value.

Key:
Assay type in all cases: functional
[1] = tested on: Mycobacterium tuberculosis; assay: Antimycobacterial activity against INH-resistant Mycobacterium tuberculosis by agar dilution method above 6.25 ug/ml
[2] = tested on: Mycobacterium tuberculosis; assay: Antimycobacterial activity against INH-resistant Mycobacterium tuberculosis by agar dilution method
[3] = tested on: Mycobacterium tuberculosis; assay: Antimycobacterial activity against INH-resistant Mycobacterium tuberculosis by agar dilution method at 6.25 ug/ml

COc1cc(C2=NN(C(=O)c3ccccc3)C(c3ccc(O)cc3)C2)c(C)cc1OCC(=O)O (stereo not drawn)
Inhibition [1]: 72%
MIC [2]: > 6.25 mg/L

COc1cc(C2=NN(C(=O)c3ccccc3)C(Cc3ccccc3)C2)c(C)cc1OCC(=O)O (stereo not drawn)
Inhibition [1]: 18%
MIC [2]: > 6.25 mg/L

NNC(=O)c1ccncc1 [ISONIAZID]
inhibition at 6.25 µg/mL [3]: 90%
MIC [2]: 1.56 mg/L (≈ 11.4 µM)

COc1cc(C2=NN(C(=O)Cc3ccccc3)C(Cc3ccccc3)C2)c(C)cc1OCC(=O)O (stereo not drawn)
Inhibition [1]: 34%
MIC [2]: > 6.25 mg/L

COc1cc(C2=NN(C(=O)c3ccc([N+](=O)[O-])cc3)C(Cc3ccccc3)C2)c(C)cc1OCC(=O)O (stereo not drawn)
Inhibition [1]: 50%
MIC [2]: > 6.25 mg/L

COc1cc(C2=NN(C(=O)COc3cccc4ccccc34)C3CCCC23)c(C)cc1OCC(=O)O (stereo not drawn)
Inhibition [1]: 50%
MIC [2]: > 6.25 mg/L

COc1cc(C2=NN(C(=O)c3ccc([N+](=O)[O-])cc3)C(c3ccc(O)cc3)C2)c(C)cc1OCC(=O)O (stereo not drawn)
Inhibition [1]: 70%
MIC [2]: 6.25 mg/L (≈ 12.4 µM)

COc1cc(C2=NN(C(=O)COc3ccccc3)C(c3ccc(O)cc3)C2)c(C)cc1OCC(=O)O (stereo not drawn)
inhibition at 6.25 µg/mL [3]: 99%
MIC [2]: 0.64 mg/L (≈ 1.3 µM)

COc1cc(C2=NN(C(=O)Cc3ccccc3)C(c3ccc(O)cc3)C2)c(C)cc1OCC(=O)O (stereo not drawn)
Inhibition [1]: 22%
MIC [2]: > 6.25 mg/L

COc1cc(C2=NN(C(=O)COc3cccc4ccccc34)C(Cc3ccccc3)C2)c(C)cc1OCC(=O)O (stereo not drawn)
Inhibition [1]: 20%
MIC [2]: > 6.25 mg/L

COc1cc(C2=NN(C(=O)c3ccc([N+](=O)[O-])cc3)C3CCCC23)c(C)cc1OCC(=O)O (stereo not drawn)
Inhibition [1]: 30%
MIC [2]: > 6.25 mg/L

COc1cc(C2=NN(C(=O)c3ccccc3)C3CCCC23)c(C)cc1OCC(=O)O (stereo not drawn)
Inhibition [1]: 42%
MIC [2]: > 6.25 mg/L

COc1cc(C2=NN(C(=O)COc3cccc4ccccc34)C(c3ccc(O)cc3)C2)c(C)cc1OCC(=O)O (stereo not drawn)
Inhibition [1]: 58%
MIC [2]: > 6.25 mg/L

COc1cc(C2=NN(C(=O)COc3ccccc3)C(Cc3ccccc3)C2)c(C)cc1OCC(=O)O (stereo not drawn)
inhibition at 6.25 µg/mL [3]: 92%
MIC [2]: > 6.25 mg/L

COc1cc(C2=NN(C(=O)COc3ccccc3)C3CCCC23)c(C)cc1OCC(=O)O (stereo not drawn)
Inhibition [1]: 85%
MIC [2]: > 6.25 mg/L

COc1cc(C2=NN(C(=O)COc3ccc4ccccc4c3)C(Cc3ccccc3)C2)c(C)cc1OCC(=O)O (stereo not drawn)
inhibition at 6.25 µg/mL [3]: 90%
MIC [2]: 0.94 mg/L (≈ 1.75 µM)

COc1cc(C2=NN(C(=O)COc3ccc4ccccc4c3)C3CCCC23)c(C)cc1OCC(=O)O (stereo not drawn)
Inhibition [1]: 94%
MIC [2]: 6.25 mg/L (≈ 12.8 µM)

COc1cc(C2=NN(C(=O)Cc3ccccc3)C3CCCC23)c(C)cc1OCC(=O)O (stereo not drawn)
Inhibition [1]: 24%
MIC [2]: > 6.25 mg/L

COc1cc(C2=NN(C(=O)COc3ccc4ccccc4c3)C(c3ccc(O)cc3)C2)c(C)cc1OCC(=O)O (stereo not drawn)
inhibition at 6.25 µg/mL [3]: 99%
MIC [2]: 0.7 mg/L (≈ 1.29 µM)
